# Biological target: T1, human QRFP receptor (GPR103) (Homo sapiens, UniProt Q96P65)
# T1 construct: expressed in transfected cells; host or cells: NFAT β-Lactamase CHO-K1 host cells (Aurora); membrane specimen
# T1 sequence (Q96P65 1-431): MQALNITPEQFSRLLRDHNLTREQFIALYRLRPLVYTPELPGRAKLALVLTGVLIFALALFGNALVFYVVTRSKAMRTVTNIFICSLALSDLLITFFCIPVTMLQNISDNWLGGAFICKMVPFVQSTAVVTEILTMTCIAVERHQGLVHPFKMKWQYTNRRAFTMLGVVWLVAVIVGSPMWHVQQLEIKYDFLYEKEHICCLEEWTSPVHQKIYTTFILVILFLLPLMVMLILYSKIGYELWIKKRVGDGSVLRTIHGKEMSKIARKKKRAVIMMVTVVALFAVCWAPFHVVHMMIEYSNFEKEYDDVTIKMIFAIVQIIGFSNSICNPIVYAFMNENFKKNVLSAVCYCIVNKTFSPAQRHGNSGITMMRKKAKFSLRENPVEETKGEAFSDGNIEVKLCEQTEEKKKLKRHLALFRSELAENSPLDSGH
# Experiment: QRFP43 Binding Inhibition Test
# Conditions: membrane specimen from GPR103 expressing CHO-K1 cells, [125I] QRFP43, 25° C., 1 hour; read-out: IC50 for the specific [125I] QRFP43 binding
# Excerpt: The cDNA sequence [Accession No. NM_198179] that codes for human QRFP receptor (GPR103) was cloned into an expression vector pEF1V5-HisB (Invitrogen). The expression vector so prepared was transfected into NFAT [β-Lactamase CHO-K1 host cells (Aurora) to obtain QRFP receptor (GPR103) expressing cells, using the cationic lipid method [see Proceedings of the National Academy of Sciences of the United States of America, Vol. 84, p. 7413 (1987)].
# The membrane specimen prepared from the QRFP receptor (GPR103) expressing cells was incubated at 25° C. for 1 hour with a test compound and 20,000 cpm [^125I] QRFP43 (PerkinElmer, Inc.) in an assay buffer (50 mM Tris-HCl, 1 mM EDTA, and 0.1% BSA, pH 7.4), followed by filtration using a glass filter GF/C. After washing with a 50 mM Tris-HCl (containing 2 mM EDTA, 10 mM MgCl2, and 0.04% Tween-20) buffer at pH 7.4, the radioactivity on the glass filter was determined using a gamma counter. Non-specific binding was measured in the presence of 1 μM peptide QRFP43, and 50% inhibition concentration (IC50 value) of the test compound for the specific [^125I] QRFP43 binding was determined [see Endocrinology, Vol. 131, p. 2090 (1992)].
row,Compound,IC50
1,"Clc1ccc(C2=NCCN2C(c2ccccc2)c2ccccc2)cc1 [Example 2, 2-(4-Chlorophenyl)-1-(diphenylmethyl)-4,5-dihydro-1H-imidazole]",17 nM
2,"Cc1ccc(C2=NCCN2C(c2ccccc2)c2ccccc2)cc1 [Example 5, 1-(Diphenylmethyl)-2-(4-methylphenyl)-4,5-dihydro-1H-imidazole]",37 nM
3,"COc1ccc(C2=NCCN2C(c2ccccc2)c2ccccc2)cc1 [Example 6, 1-(Diphenylmethyl)-2-(4-methoxyphenyl)-4,5-dihydro-1H-imidazole]",11 nM
